For 74 molecules, LC retention time results are on record in the RepoRT retention time repository (doi:10.1021/acs.analchem.2c02893).

This data set can be described thus: RP, Thermo Scientific Acclaim RSLC 120 C18, 100 × 2.1 mm, 2.2 µm, 30 °C, 0.2 mL/min, estimated dead time 1.1 min; A: 90% water + 10% methanol + 0.01% formic acid + 5 mM ammonium formate, pH 3.61; B: methanol + 0.01% formic acid + 5 mM ammonium formate, pH 3.61; gradient (min/%B) 0/1 1/1 2/39 13/99.9 15/99.9 15.1/1 20.1/1. The conditions noted are these: stereoisomer not certain.
`CC1(c2ccc(Oc3ccccc3)cc2)OC(=O)N(Nc2ccccc2)C1=O` (centres undefined) [Famoxadone]: the LC retention time is 11 min.

Regarding `COP(=S)(OC)Oc1ccc(S(=O)(=O)N(C)C)cc1` [Famphur], the LC retention time was 7.99 min.

For the molecule `CC(CCN1CCOCC1)OC(=O)C1(c2ccccc2)CCOCC1` (centres undefined) [Fedrilate], the LC retention time was 6.12 min.

Regarding `CCOC(=O)C1=C(C)NC(C)=C(C(=O)OC)C1c1cccc(Cl)c1Cl` (centres undefined) [Felodipine], the LC retention time was 11 min.

In the case of `CSC1=NC(C)(c2ccccc2)C(=O)N1Nc1ccccc1` (centres undefined) [Fenamidone], the LC retention time is 9.22 min.

Take `CCOP(=O)(NC(C)C)Oc1ccc(S(C)(=O)=O)c(C)c1` (centres undefined) [Fenamiphos - sulfone]: the LC retention time was 7.21 min.

For the molecule `CCOP(=O)(NC(C)C)Oc1ccc(SC)c(C)c1` (centres undefined) [Fenamiphos], the LC retention time is 10.4 min.

Turning to `OC(c1ccc(Cl)cc1)(c1cncnc1)c1ccccc1Cl` (centres undefined) [Fenarimol], the LC retention time was 10.1 min.

On to `CC(C)(C)c1ccc(CCOc2ncnc3ccccc23)cc1` [Fenazaquin], for which the LC retention time is 13.7 min.

On to `N#CC(CCc1ccc(Cl)cc1)(Cn1cncn1)c1ccccc1` (centres undefined) [Fenbuconazole], for which the LC retention time was 10.4 min.

With `CC(C)([CH2][Sn+]([CH2]C(C)(C)c1ccccc1)[CH2]C(C)(C)c1ccccc1)c1ccccc1` [Fenbutatin Oxide Fragm 519], the LC retention time was 14.5 min.

As to `CCNC1C2CCC(C2)C1c1ccccc1` (centres undefined) [Fencamfamine], the LC retention time was 6.08 min.

`COP(=S)(OC)Oc1cc(Cl)c(Cl)cc1Cl` [Fenclofos.Ronnel]: the LC retention time is 12.5 min.

`CC(NCCC(c1ccccc1)c1ccccc1)c1ccccc1` (centres undefined) [Fendiline]: the LC retention time is 8.54 min.

On to `NCC(O)c1cccc(O)c1` (centres undefined) [Fenefrine-Nor], for which the LC retention time is 1.81 min.

Consider `CC(Cc1ccccc1)NCCn1cnc2c1c(=O)n(C)c(=O)n2C` (centres undefined) [Fenethylline], for which the LC retention time was 5.06 min.

As to `CC(N)Cc1cccc(C(F)(F)F)c1` (centres undefined) [Fenfluramine-Nor], the LC retention time is 5.91 min.

In the case of `CCN(N=O)C(C)Cc1cccc(C(F)(F)F)c1` (centres undefined) [Fenfluramine-n-Nitroso], the LC retention time is 9.38 min.

With `Cc1occc1C(=O)Nc1ccccc1` [Fenfuram], the LC retention time is 7.59 min.

Turning to `CC1(C(=O)Nc2ccc(O)c(Cl)c2Cl)CCCCC1` [Fenhexamide], the LC retention time was 10.1 min.

Take `COP(=S)(OC)Oc1ccc([N+](=O)[O-])c(C)c1` [Fenitrothion]: the LC retention time was 9.92 min.

On to `CCC(C)c1ccccc1OC(=O)NC` (centres undefined) [Fenobucarb], for which the LC retention time is 9.05 min.

Take `CC(C)OC(=O)C(C)(C)Oc1ccc(C(=O)c2ccc(Cl)cc2)cc1` [Fenofibrate]: the LC retention time is 12.6 min.

`CC(C)(Oc1ccc(C(=O)c2ccc(Cl)cc2)cc1)C(=O)O` [Fenofibric acid]: the LC retention time was 9.68 min.

`COC(=O)C(C)Oc1cc(Cl)c(Cl)cc1Cl` (centres undefined) [Fenoprop-methylester  (Silvex-methyester)]: the LC retention time is 11.5 min.

Consider `CC(Cc1ccc(O)cc1)NCC(O)c1cc(O)cc(O)c1` (centres undefined) [Fenoterol], for which the LC retention time was 3.61 min.

Consider `CN(C)C(=O)SCCCCOc1ccccc1` [Fenothiocarb], for which the LC retention time is 10.7 min.

Consider `CC(Oc1ccc(Oc2nc3ccc(Cl)cc3o2)cc1)C(=O)O` (centres undefined) [Fenoxaprop-P], for which the LC retention time is 9.83 min.

As for `CCOC(=O)NCCOc1ccc(Oc2ccccc2)cc1` [Fenoxycarb], the LC retention time is 10.6 min.

Take `N#Cc1c[nH]cc1-c1cccc(Cl)c1Cl` [Fenpiclonil]: the LC retention time is 8.91 min.

On to `NC(=O)C(CCN1CCCCC1)(c1ccccc1)c1ccccc1` [Fenpipramide], for which the LC retention time was 5.19 min.

Consider `c1ccc(C(CCN2CCCCC2)c2ccccc2)cc1` [Fenpiprane], for which the LC retention time is 6.82 min.

As for `CC1(C)C(C(=O)OC(C#N)c2cccc(Oc3ccccc3)c2)C1(C)C` (centres undefined) [Fenpropathrin], the LC retention time is 12.9 min.

As for `CC(Cc1ccc(C(C)(C)C)cc1)CN1CCCCC1` (centres undefined) [Fenpropidin], the LC retention time was 8.62 min.

As for `CC(Cc1ccc(C(C)(C)C)cc1)CN1CC(C)OC(C)C1` (centres undefined) [Fenpropimorph], the LC retention time was 10.7 min.

As to `CC(Cc1ccccc1)NCCC#N` (centres undefined) [Fenproporex (NARL)], the LC retention time was 4.14 min.

Consider `Cc1nn(C)c(Oc2ccccc2)c1C=NOCc1ccc(C(=O)OC(C)(C)C)cc1` [Fenpyroximate], for which the LC retention time was 13.2 min.

Regarding `O=S(=O)(Oc1ccc(Cl)cc1)c1ccccc1` [Fenson], the LC retention time was 10.1 min.

As to `CCOP(=S)(OCC)Oc1ccc(S(C)(=O)=O)cc1` [Fensulfothion-sulfon], the LC retention time is 8.48 min.

In the case of `CCOP(=S)(OCC)Oc1ccc(S(C)=O)cc1` (centres undefined) [Fensulfothion], the LC retention time was 8.27 min.

Take `COP(=O)(OC)Oc1ccc(SC)c(C)c1` [Fenthion-oxon]: the LC retention time is 8.82 min.

`COP(=S)(OC)Oc1ccc(S(C)(=O)=O)c(C)c1` [Fenthion-sulfon]: the LC retention time is 7.57 min.

In the case of `COP(=S)(OC)Oc1ccc(S(C)=O)c(C)c1` (centres undefined) [Fenthion-sulfoxide], the LC retention time is 7.28 min.

Turning to `COP(=S)(OC)Oc1ccc(SC)c(C)c1` [Fenthion], the LC retention time was 11 min.

Turning to `Clc1ccc(C(Cn2ccnc2)OCc2ccc(Sc3ccccc3)cc2)c(Cl)c1` (centres undefined) [Fenticonazole], the LC retention time is 13.4 min.

Consider `c1cc[c]([Sn+]([c]2ccccc2)[c]2ccccc2)cc1` [Fentin (triphenylstannylium) (1+)], for which the LC retention time is 10.4 min.

On to `CN(C)C(=O)Nc1ccccc1` [Fenuron], for which the LC retention time is 5.12 min.

As for `CC(C)(C(=O)O)c1ccc(C(O)CCCN2CCC(C(O)(c3ccccc3)c3ccccc3)CC2)cc1` (centres undefined) [Fexofenadine], the LC retention time was 7.68 min.

Regarding `CC(C)(C)NC(=O)C1CCC2C3CCC4NC(=O)C=CC4(C)C3CCC12C` (centres undefined) [Finasteride], the LC retention time was 9.9 min.

As to `N#Cc1nn(-c2c(Cl)cc(C(F)(F)F)cc2Cl)c(N)c1C(F)(F)F` [Fipronil-desulfinyl], the LC retention time is 10.4 min.

`N#Cc1nn(-c2c(Cl)cc(C(F)(F)F)cc2Cl)c(N)c1SC(F)(F)F` [Fipronil-sulfide]: the LC retention time was 10.8 min.

For `N#Cc1nn(-c2c(Cl)cc(C(F)(F)F)cc2Cl)c(N)c1S(=O)(=O)C(F)(F)F` [Fipronil-sulfone], the LC retention time was 11 min.

As to `N#Cc1nn(-c2c(Cl)cc(C(F)(F)F)cc2Cl)c(N)c1S(=O)C(F)(F)F` (centres undefined) [Fipronil], the LC retention time is 10.5 min.

On to `CC(C)OC(=O)C(C)N(C(=O)c1ccccc1)c1ccc(F)c(Cl)c1` (centres undefined) [Flamprop-isopropyl], for which the LC retention time was 10.8 min.

As for `CC(C(=O)O)N(C(=O)c1ccccc1)c1ccc(F)c(Cl)c1` (centres undefined) [Flamprop], the LC retention time was 8.6 min.

`COc1cc(OC)nc(NC(=O)NS(=O)(=O)c2ncccc2C(F)(F)F)n1` [Flazasulfuron]: the LC retention time was 8.56 min.

As to `O=C(NCC1CCCCN1)c1cc(OCC(F)(F)F)ccc1OCC(F)(F)F` (centres undefined) [Flecainide], the LC retention time was 6.44 min.

Consider `O=c1[nH]c2ccccc2n1CCN1CCN(c2cccc(C(F)(F)F)c2)CC1` [Flibanserin], for which the LC retention time was 9.99 min.

For `O=c1oc2ccccc2c(O)c1C1CC(c2ccc(OCc3ccc(C(F)(F)F)cc3)cc2)Cc2ccccc21` (centres undefined) [Flocoumafen], the LC retention time is 12.4 min.

On to `N#CCNC(=O)c1cnccc1C(F)(F)F` [Flonicamid], for which the LC retention time is 4.22 min.

For the molecule `COc1ncc(F)c2nc(S(=O)(=O)Nc3c(F)cccc3F)nn12` [Florasulam], the LC retention time is 5.75 min.

Regarding `CS(=O)(=O)c1ccc(C(O)C(CF)NC(=O)C(Cl)Cl)cc1` (centres undefined) [Florfenicol], the LC retention time was 4.73 min.

With `COC=C(C(=O)OC)c1ccccc1COc1cc(C(F)(F)F)nc(OC(C)C)n1` [Fluacrypyrim], the LC retention time is 11.5 min.

As to `COc1ccccc1N1CCN(CCCC(=O)c2ccc(F)cc2)CC1` [Fluanisone], the LC retention time was 6.41 min.

Consider `CCCCOC(=O)C(C)Oc1ccc(Oc2ccc(C(F)(F)F)cn2)cc1` (centres undefined) [Fluazifop-p-butyl], for which the LC retention time is 12 min.

On to `O=[N+]([O-])c1cc(C(F)(F)F)c(Cl)c([N+](=O)[O-])c1Nc1ncc(C(F)(F)F)cc1Cl` [Fluazinam], for which the LC retention time was 12.3 min.

Consider `O=C(NC(=O)c1c(F)cccc1F)Nc1ccc(Cl)c(Oc2ncc(C(F)(F)F)cc2Cl)c1` [Fluazuron], for which the LC retention time is 12.7 min.

For the molecule `COC(=O)Nc1nc2ccc(C(=O)c3ccc(F)cc3)cc2[nH]1` [Flubendazole], the LC retention time was 8.65 min.

For `O=C1CN=C(c2ccccc2F)c2cc(Br)ccc2N1` [Flubromazepam], the LC retention time is 8.7 min.

On to `Cc1nnc2n1-c1ccc(Br)cc1C(c1ccccc1F)=NC2` [Flubromazolam], for which the LC retention time is 8.04 min.

For the molecule `OC(Cn1cncn1)(Cn1cncn1)c1ccc(F)cc1F` [Fluconazole], the LC retention time is 5.06 min.

For the molecule `O=C(NC(=O)c1c(F)cccc1F)Nc1ccc(CON=C(c2ccc(Cl)cc2)C2CC2)cc1` [Flucycloxuron], the LC retention time is 12.8 min.

Turning to `CC(C)C(C(=O)OC(C#N)c1cccc(Oc2ccccc2)c1)c1ccc(OC(F)F)cc1` (centres undefined) [Flucythrinate], the LC retention time was 12.7 min.

For the molecule `N#Cc1c[nH]cc1-c1cccc2c1OC(F)(F)O2` [Fludioxonil], the LC retention time is 9.48 min.
